One may read the IC50 as the point on the concentration scale where inhibition reaches its midpoint. What is called Cmax is the maximum level reached in the sampled fluid or tissue.

Structures are written as SMILES. Where only a bound is given, the exact number is not on record here.

Data set [1] has as its target Toll-like receptor 7 (Mus musculus) (UniProt P58681). Kind of data set: In vivo antagonist activity against TLR7 in po dosed mouse assessed as suppression of TNF level measured at 3 hrs by LC-MS/MS analysis. Conditions: dose 1-30 mg/kg.
For data set [2] the target is unchanged. Kind of data set: In vivo antagonist activity against TLR7 in mouse assessed as suppression of IFN alpha level at 3 mg/kg, po measured at 3 hrs by LC-MS/MS analysis.
Data set [3] has the same target. Kind of data set: In vivo antagonist activity against TLR7 in mouse assessed as suppression of IFN alpha level at 30 mg/kg, po measured at 3 hrs by LC-MS/MS analysis.
Data set [4] has as its target T1, Toll-like receptor 7 (Mus musculus, UniProt P58681).
T1 sequence (P58681 whole entry): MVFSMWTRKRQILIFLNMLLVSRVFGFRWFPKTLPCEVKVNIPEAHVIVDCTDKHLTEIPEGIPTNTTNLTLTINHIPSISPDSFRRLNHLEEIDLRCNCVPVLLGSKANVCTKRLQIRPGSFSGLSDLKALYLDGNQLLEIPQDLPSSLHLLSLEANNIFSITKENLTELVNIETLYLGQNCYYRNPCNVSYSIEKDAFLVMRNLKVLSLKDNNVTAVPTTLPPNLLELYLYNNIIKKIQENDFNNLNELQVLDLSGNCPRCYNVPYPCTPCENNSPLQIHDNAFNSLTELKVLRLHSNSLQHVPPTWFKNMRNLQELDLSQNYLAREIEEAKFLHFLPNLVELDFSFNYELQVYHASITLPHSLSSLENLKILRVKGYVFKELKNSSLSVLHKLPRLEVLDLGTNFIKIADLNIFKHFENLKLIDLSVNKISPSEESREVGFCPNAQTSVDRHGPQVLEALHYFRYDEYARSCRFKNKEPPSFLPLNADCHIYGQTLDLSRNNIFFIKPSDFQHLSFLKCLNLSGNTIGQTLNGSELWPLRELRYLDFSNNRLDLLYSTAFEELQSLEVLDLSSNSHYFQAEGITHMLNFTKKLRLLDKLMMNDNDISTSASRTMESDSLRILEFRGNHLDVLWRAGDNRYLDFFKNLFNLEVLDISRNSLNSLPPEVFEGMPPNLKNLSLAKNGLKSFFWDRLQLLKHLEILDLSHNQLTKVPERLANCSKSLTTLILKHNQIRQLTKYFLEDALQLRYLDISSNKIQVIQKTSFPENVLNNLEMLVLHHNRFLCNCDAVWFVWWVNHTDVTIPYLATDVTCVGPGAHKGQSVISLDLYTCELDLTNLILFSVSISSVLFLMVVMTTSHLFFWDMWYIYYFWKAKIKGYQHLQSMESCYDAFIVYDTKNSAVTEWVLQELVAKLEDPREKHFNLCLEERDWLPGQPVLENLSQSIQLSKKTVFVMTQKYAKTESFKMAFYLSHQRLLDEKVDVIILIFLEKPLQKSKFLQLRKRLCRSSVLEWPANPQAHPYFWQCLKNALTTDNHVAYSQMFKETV
Kind of data set: Antagonist activity at TLR7 in mouse Whole blood cell assessed as reduction in IFN-alpha level measured after 20 hrs by AlphaLISA method. It counts as tissue-based. A general note: Bead proximity is the source of the signal in Alpha formats.

Data set [5] addresses T2, Toll-like receptor 8 (Homo sapiens, UniProt Q9NR97).
T2 sequence (Q9NR97 whole entry): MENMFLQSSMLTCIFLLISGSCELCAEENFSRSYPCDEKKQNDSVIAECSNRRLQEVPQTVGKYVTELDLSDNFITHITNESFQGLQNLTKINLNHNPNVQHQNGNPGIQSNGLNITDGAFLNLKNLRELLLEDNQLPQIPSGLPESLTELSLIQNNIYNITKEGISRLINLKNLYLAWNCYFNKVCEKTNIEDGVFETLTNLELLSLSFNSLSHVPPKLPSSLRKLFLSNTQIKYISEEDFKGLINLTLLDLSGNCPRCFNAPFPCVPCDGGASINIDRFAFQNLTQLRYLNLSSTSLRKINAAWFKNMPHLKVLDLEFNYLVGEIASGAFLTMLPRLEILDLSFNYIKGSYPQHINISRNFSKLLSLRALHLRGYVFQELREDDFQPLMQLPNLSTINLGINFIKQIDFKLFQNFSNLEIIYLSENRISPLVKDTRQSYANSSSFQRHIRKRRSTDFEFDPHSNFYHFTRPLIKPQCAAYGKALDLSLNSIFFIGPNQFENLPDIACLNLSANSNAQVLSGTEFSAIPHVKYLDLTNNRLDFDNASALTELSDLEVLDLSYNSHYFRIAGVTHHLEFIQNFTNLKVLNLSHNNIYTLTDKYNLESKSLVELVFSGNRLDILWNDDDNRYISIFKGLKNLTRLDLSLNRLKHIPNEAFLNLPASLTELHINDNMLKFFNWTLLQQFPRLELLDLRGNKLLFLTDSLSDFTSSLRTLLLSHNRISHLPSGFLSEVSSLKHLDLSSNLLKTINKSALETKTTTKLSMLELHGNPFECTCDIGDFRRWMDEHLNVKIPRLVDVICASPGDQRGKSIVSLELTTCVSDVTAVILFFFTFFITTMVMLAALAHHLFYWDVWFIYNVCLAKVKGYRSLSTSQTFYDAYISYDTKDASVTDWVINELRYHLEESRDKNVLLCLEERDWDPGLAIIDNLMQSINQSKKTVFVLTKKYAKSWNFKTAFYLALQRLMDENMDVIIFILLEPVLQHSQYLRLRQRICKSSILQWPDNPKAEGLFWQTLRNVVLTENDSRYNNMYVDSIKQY
The data set is described as follows: Antagonist activity at TLR8 in human Whole blood cell […] assessed as reduction in IL-6 level measured after 30 mins. It is filed as tissue-based.

Data set [6] deals with Toll-like receptor 4 (Homo sapiens, UniProt O00206). The data set is described as follows: Antagonist activity at TLR4 in human Whole blood cell assessed as reduction in IL-6 level measured after 30 mins. It is filed as tissue-based.
Data set [7] addresses Toll-like receptor 7 (Mus musculus) (UniProt P58681). The data set is described as follows: In vivo antagonist activity against TLR7 in po dosed mouse assessed as suppression of IL-6 level measured at 3 hrs by LC-MS/MS analysis. As to conditions: dose 1-30 mg/kg.
Data set [8] can be described thus: Cmax in mouse at 20 mg/kg, po. It counts as ADME, organism-based. Also noted: dose 20 mg/kg, route po. Conditions: in vivo.

Chain of Toll-like receptor 4 (O00206 whole entry): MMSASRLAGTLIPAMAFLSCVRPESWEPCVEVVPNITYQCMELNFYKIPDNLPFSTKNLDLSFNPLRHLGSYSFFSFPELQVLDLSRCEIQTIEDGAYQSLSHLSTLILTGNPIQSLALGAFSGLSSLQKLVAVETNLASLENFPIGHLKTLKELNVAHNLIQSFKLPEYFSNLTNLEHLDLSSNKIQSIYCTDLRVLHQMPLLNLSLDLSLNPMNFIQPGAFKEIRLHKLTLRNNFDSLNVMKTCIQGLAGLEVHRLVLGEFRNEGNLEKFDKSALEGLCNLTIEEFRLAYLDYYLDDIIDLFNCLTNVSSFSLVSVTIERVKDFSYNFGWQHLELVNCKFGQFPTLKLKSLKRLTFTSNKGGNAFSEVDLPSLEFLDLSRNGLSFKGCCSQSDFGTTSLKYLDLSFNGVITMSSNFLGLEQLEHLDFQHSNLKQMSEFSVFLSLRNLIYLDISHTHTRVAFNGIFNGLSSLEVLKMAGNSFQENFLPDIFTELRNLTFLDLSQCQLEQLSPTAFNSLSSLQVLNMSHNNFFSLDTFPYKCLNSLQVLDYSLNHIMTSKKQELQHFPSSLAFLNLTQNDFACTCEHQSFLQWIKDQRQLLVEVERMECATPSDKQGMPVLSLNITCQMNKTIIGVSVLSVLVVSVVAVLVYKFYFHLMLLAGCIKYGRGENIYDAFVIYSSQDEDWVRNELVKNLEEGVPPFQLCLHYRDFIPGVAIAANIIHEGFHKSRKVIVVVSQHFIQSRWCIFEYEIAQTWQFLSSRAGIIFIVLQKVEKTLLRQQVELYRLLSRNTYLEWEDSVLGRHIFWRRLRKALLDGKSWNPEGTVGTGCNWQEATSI

With `Cc1cc(N2CCc3c(c(C)nn3CC34CCC(NC(=O)[C@@H]5COCCN5)(CC3)CC4)C2)c2cnn(C)c2n1` [MHV-370], the Activity entry is “Dose-Dependent Effect” in data set [1], 141 ng/mL in data set [2], 1347 ng/mL in data set [3] and “Dose-Dependent Effect” in data set [7]. The IC50 in data set [4] is 51 nM; in data set [5], 74 nM; in data set [6], above 10000 nM.

`Cc1cc(N2CCc3c(c(C)nn3CC34CCC(N)(CC3)CC4)C2)c2cnn(C)c2n1` came in with a maximum concentration (Cmax) in data set [8] of 321 nM.
